Values joined by “and” are separate entries in the source; they are usually repeats but may differ in a detail not shown here. Equal entries are not always repeated. “Also recorded” adds a separate entry of the source. Where two headings read alike, the source gives them in different places.
Assays:
[1] = tested on: IFN-β induction in HEK293T cells expressing SARS-CoV-2 PL^pro; assay type: cell-based
[2] = molecular target: PL^pro ISG15 cleavage activity (Severe acute respiratory syndrome coronavirus 2, UniProt P0DTD1); assay: PL^pro ISG15 substrate (deISGylase) assay; assay type: biochemical, SARS-CoV-2
Experimental: (§1) Briefly, in each assay, the enzyme was loaded into each well in the appropriate buffer, next the compounds were added into the well and incubated for 10-60 min at 37° C. The reaction was initiated by addition of substrate to each well and the fluorescent signal was read for 60 min at the appropriate excitation/emission.
(§2) For the PL^pro and PL^pro deubiquitinase assays, DTT was added to the assay buffer to achieve 1 mM DTT before the assay. A 10 mM stock of compounds was prepared in DMSO, this stock was diluted in assay buffer to achieve a 10× of the desire concentration in the well. Next, the PL^pro and deubiquitinase substrates were diluted to 42 μM and 0.5 μM respectively in the assay buffer. Then, PL^pro enzyme was diluted to 2.5 ng/μL and 6 ng/μL for the PL^pro and deubiquitinase assays respectively in the assay buffer. […] The reaction was started by adding 12.5 μL of the substrate to each well, the reaction was monitored for 1 h at excitation at 360 nm; emission at 460 nm. For the ISG15 substrate, PL^pro enzyme at 0.1 nM was incubated with compounds for lh and the reaction was initiated by adding ISG15-RH110 substrate at 500 nM, the reaction was monitored for 1-hour excitation at 485 nm; emission at 535 nm. […] Following the incubation, 2 μL of substrate at 25 μM was added into the wells and the fluorescent signal (ex/em 380/455 nm) was recorded for 1 h at 37° C.

[3] = cited from earlier work
SARS-CoV-2 PL^pro = SARS-CoV-2 PL^pro (Severe acute respiratory syndrome coronavirus 2, UniProt P0DTD1); assay: biochemical; conditions: for inhibition at 50 µM: read-out: inhibition of PL^pro activity in library screening
[4] = molecular target: spike protein-ACE2 complex (UniProt P0DTC2+Q9BYF1); conditions: separate study; cited from earlier work
Sequence of spike protein-ACE2 complex (Q9BYF1 18-805, one chain of several): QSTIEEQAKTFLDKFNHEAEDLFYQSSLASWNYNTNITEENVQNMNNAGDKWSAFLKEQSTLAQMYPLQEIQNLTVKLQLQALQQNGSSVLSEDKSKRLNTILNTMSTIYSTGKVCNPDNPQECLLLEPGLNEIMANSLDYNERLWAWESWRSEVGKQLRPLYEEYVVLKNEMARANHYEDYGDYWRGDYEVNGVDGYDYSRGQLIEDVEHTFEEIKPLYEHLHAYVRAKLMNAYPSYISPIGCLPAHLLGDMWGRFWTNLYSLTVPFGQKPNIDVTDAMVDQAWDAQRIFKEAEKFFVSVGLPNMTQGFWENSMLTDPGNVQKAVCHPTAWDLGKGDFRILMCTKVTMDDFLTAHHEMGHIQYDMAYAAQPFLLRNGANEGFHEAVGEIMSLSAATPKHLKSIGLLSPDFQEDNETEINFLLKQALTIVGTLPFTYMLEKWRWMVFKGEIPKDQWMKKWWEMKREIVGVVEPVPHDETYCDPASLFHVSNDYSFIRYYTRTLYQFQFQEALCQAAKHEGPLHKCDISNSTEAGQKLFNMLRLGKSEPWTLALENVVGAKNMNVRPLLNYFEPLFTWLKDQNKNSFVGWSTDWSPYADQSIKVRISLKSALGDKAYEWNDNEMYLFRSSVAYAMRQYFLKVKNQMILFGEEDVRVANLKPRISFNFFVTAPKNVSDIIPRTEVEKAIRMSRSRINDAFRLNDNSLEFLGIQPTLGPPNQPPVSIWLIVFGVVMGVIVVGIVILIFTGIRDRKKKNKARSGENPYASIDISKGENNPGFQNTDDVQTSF

[5] = tested on: IFN induction (IRF3 reporter); assay: IFN induction assay, IRF3 binding site Firefly luciferase reporter with poly(I:C); assay type: cell-based
Vero E6 normal cells = conditions: cited from earlier work
[6] = Plasma drug level in mice by LC-MS/MS; conditions: C57BL/6, mouse
Experimental: Following compound administration, mice were euthanized at 2 hours, followed by perfusion.
(§3) Two hours after dosing, mice were anesthetized and blood was collected following transcardial puncture for the isolation of plasma. Mice were then perfused transcardially with saline and brain tissue removed.

SARS-CoV-2 = conditions: cited from earlier work; for EC50: read-out: antiviral EC50; for EC90: read-out: antiviral EC90
SARS-CoV-2 M^pro = SARS-CoV-2 M^pro (Severe acute respiratory syndrome coronavirus 2, UniProt P0DTD1); assay: M^pro activity assay, fluorogenic substrate; assay type: biochemical; conditions: alone, FIG. 7B
[7] = Brain drug level in mice by LC-MS/MS; conditions: for concentration at 2 h: male, C57BL/6, mouse, brain, po, 30 mg/kg; for brain permeability: pilot PK studies in mice
From the text: as §3

[8] = molecular target: PL^pro deubiquitinase activity (Severe acute respiratory syndrome coronavirus 2, UniProt P0DTD1); assay: PL^pro deubiquitinase substrate assay; assay type: biochemical, SARS-CoV-2
Experimental: as §1, §2

PL^pro = PL^pro (Severe acute respiratory syndrome coronavirus 2, UniProt P0DTD1); conditions: read-out: reported PL^pro IC50; cited from earlier work
[9] = 1 μM, poly I:C, Wuhan strain PL^pro
[10] = in combination with DDL-750 or DDL-750/DDL-751, FIG. 2
[11] = PL^pro peptide substrate, dose response, read-out: IC50 PL^pro inhibition
[12] = po, 30 mg/kg, plasma levels in combination DDL-701+DDL-750, mice, oral gavage 30 mg/kg, combination, FIG. 5
[13] = po, 30 mg/kg, plasma levels, mice, oral gavage 30 mg/kg, given alone, FIG. 5
[14] = male, oral, plasma levels in combination, mice, DDL-701 + DDL-750 both 30 mg/Kg oral, FIG. 9
[15] = male, po, 30 mg/kg, plasma levels, mice, oral 30 mg/Kg, given alone, FIG. 9
[16] = Vero E6 cells infected with SARS-CoV-2
[17] = SARS-CoV-2 infected VeroE6 cells
[18] = read-out: Cmax in human plasma after oral dosing, oral dosing

**Q.** With `CC1=NN(c2ccc(C)c(C)c2)C(=O)/C1=N/Nc1cccc(-c2cccc(C(=O)O)c2)c1O` [DDL-701, eltrombopag] as the compound, how does the “rescue of IFN-β induction in the presence of PL^pro” value (“rescue of IFN-β induction” below) [1, 9] read?
**A.** modestly yet significantly rescued; also recorded: partially restored

**Q.** What about the “rescue of IFN-β induction” value ([1]; higher concentrations than 1 μM) of the same compound?
**A.** did not rescue induction

**Q.** And the IC50 ([2]; ISG15 substrate, dose response)?
**A.** 8 µM

**Q.** What about the “ISG15 activity inhibition in combination” value [2, 10] of the same compound?
**A.** inhibits

**Q.** What about the AUC ([3]; human, single oral dose of 75 mg, tablet) of the same compound?
**A.** 168 µg·h/mL

**Q.** What about the Cmax ([3]; read-out: plasma Cmax, human, single oral dose of 75 mg, tablet) of the same compound?
**A.** 25 to 36 µM

**Q.** And the Cmax ([3]; read-out: steady state drug level in plasma, Cmax, human, 75 mg tablet, oral dosing, steady state)?
**A.** ~50 µM

**Q.** What about the “inhibition of PL^pro by DDL-701 in combination with DDL-750” value (SARS-CoV-2 PL^pro; DDL-701/750 at 50 μM/0.1 μM, FIG. 7A) of the same compound?
**A.** not affected

**Q.** And the “inhibition of PL^pro” value (SARS-CoV-2 PL^pro; DDL-701 alone at 50 μM, FIG. 7A)?
**A.** almost complete

**Q.** And the IC50 (SARS-CoV-2 PL^pro; [11])?
**A.** 13 µM

**Q.** And the “PLpro inhibition in combination” value (SARS-CoV-2 PL^pro; [10])?
**A.** inhibits; also recorded: continues to show its inhibition

**Q.** And the inhibition at 50 µM (SARS-CoV-2 PL^pro)?
**A.** > 80%

**Q.** And the “effect on spike protein-ACE2 complex” value [4]?
**A.** bind and reduce the stability

**Q.** What about the IFN induction ([5]; at 10 and 1 μM) of the same compound?
**A.** approximately 1.5 fold over DMSO

**Q.** What about the CC50 (Vero E6 normal cells) of the same compound?
**A.** > 50 µM

**Q.** And the concentration at 2 h [6, 12]?
**A.** 4 µM

**Q.** And the concentration at 2 h [6, 13]?
**A.** ~11 µM

**Q.** And the concentration at 2 h [6, 14]?
**A.** ~4 µM and 1630 ng/mL

**Q.** What about the concentration at 2 h [6, 15] of the same compound?
**A.** ~14 µM and ~6210 ng/mL

**Q.** And the EC50 (SARS-CoV-2; [16])?
**A.** 8.2 µM

**Q.** What about the EC90 (SARS-CoV-2; [16]) of the same compound?
**A.** 9.5 µM

**Q.** What about the EC50 (SARS-CoV-2; Vero cells infected with SARS-CoV-2 (Sangeun J. et al., 2020)) of the same compound?
**A.** ~8 µM

**Q.** What about the “activity in M^pro activity assay” value (SARS-CoV-2 M^pro) of the same compound?
**A.** did not show activity; also recorded: not M^pro

**Q.** What about the concentration at 2 h [7] of the same compound?
**A.** ~1 µM and ~442 ng/g

**Q.** And the “brain penetration relative to nirmatrelvir” value ([7]; mice, oral 30 mg/Kg, 2 hours)?
**A.** > 5 fold

**Q.** And the brain permeability [7]?
**A.** brain-permeable

**Q.** What about the IC50 ([8]; deubiquitinase substrate, dose response) of the same compound?
**A.** 21 µM

**Q.** And the “deubiquitinase inhibition in combination” value [8, 10]?
**A.** inhibits

**Q.** For `CC1=NN(c2ccc(C)c(C)c2)C(=O)/C1=N/Nc1cccc(-c2cccc(-c3nnn[nH]3)c2)c1O` [DDL-713, thrombopoietin receptor agonist-1], which IC50 (SARS-CoV-2 PL^pro; [11]) is on record?
**A.** ~54 µM

**Q.** And the inhibition at 50 µM (SARS-CoV-2 PL^pro; compounds at 50 μM)?
**A.** > 80%

**Q.** For `COc1cc(C(=O)NS(=O)(=O)c2ccccc2C)ccc1Cc1cn(C)c2ccc(NC(=O)OC3CCCC3)cc12` [DDL-715, zafirlukast], which “rescue of IFN-β induction” value [1, 9] is on record?
**A.** not

**Q.** And the “rescue of IFN-β induction” value ([1]; any dose)?
**A.** Neither DDL-715 nor DDL-750 rescued IFN-β induction

**Q.** What about the Cmax ([3]; human, in vivo, po) of the same compound?
**A.** ~0.5 µM

**Q.** What about the IC50 (SARS-CoV-2 PL^pro) of the same compound?
**A.** ~24 µM

**Q.** What about the inhibition at 50 µM (SARS-CoV-2 PL^pro; compounds at 50 μM) of the same compound?
**A.** > 80%

**Q.** What about the IFN induction ([5]; at 10 and 1 μM) of the same compound?
**A.** approximately 1.5 fold over DMSO

**Q.** And the concentration at 2 h [6, 13]?
**A.** ~4 µM

**Q.** Which “rescue of IFN-β induction” value [1, 9] does the source give for `CC(C)(C)[C@H](NC(=O)C(F)(F)F)C(=O)N1C[C@H]2[C@@H]([C@H]1C(=O)N[C@H](C#N)C[C@@H]1CCNC1=O)C2(C)C` [DDL-750, nirmatrelvir] here?
**A.** not

**Q.** What about the “rescue of IFN-β induction” value ([1]; any dose) of the same compound?
**A.** Neither DDL-715 nor DDL-750 rescued IFN-β induction

**Q.** What about the IFN induction ([5]; at 1 μM) of the same compound?
**A.** approximately 1.3 fold over DMSO

**Q.** What about the CC50 (Vero E6 normal cells) of the same compound?
**A.** > 100 µM

**Q.** And the concentration at 2 h [6, 12]?
**A.** 0.1 µM

**Q.** What about the concentration at 2 h [6, 13] of the same compound?
**A.** ~0.4 µM

**Q.** And the concentration at 2 h [6, 14]?
**A.** ~100 nM and ~55 ng/mL

**Q.** And the concentration at 2 h [6, 15]?
**A.** ~500 nM and ~234 ng/mL

**Q.** And the EC50 (SARS-CoV-2; [17])?
**A.** 0.074 µM

**Q.** And the EC90 (SARS-CoV-2; [17])?
**A.** 0.155 µM

**Q.** And the concentration at 2 h [7]?
**A.** ~180 nM and ~91 ng/g

**Q.** And the brain permeability [7]?
**A.** lower brain-permeability

**Q.** For `CC(C)c1nc(CN(C)C(=O)N[C@H](C(=O)N[C@@H](Cc2ccccc2)C[C@H](O)[C@H](Cc2ccccc2)NC(=O)OCc2cncs2)C(C)C)cs1` [DDL-751, ritonavir], which IFN induction ([5]; at the concentration tested) is on record?
**A.** did not produce IFN induction

**Q.** What does the source list for `CCCCc1nc(Cl)c(CO)n1Cc1ccc(-c2ccccc2-c2nn[nH]n2)cc1` [losartan]?
**A.** Cmax [3, 18]: ~0.5 µM; IC50 (PL^pro): ~13 µM

**Q.** What does the source list for `O=C(O)c1cc(F)c2nc(N3[C@@H]4CC[C@H]3C[C@@H](OCc3c(-c5ccccc5OC(F)(F)F)noc3C3CC3)C4)sc2c1` [tropifexor]?
**A.** Cmax [3, 18]: < 0.1 µM; IC50 (PL^pro): ~6 µM

Source: patent publication US20230381141A1, “CONJOINT THERAPIES FOR TREATING VIRAL INFECTIONS” (priority 2022, published 2023)
